Earlier results in patent US6562827B1, “Heterocyclically substituted amides used as calpain inhibitors” (Abbott Laboratories, priority 1998, dated 2003).

Columns and labels:
[1] = test system: tyrosine kinase pp60src cleaved by calpain; settings: activated platelets; Oda et al. J. Biol. Chem. 1993
calpain [2] = settings: result in words, from the literature
calpain [3] = settings: known calpain inhibitors
[4] = known calpain inhibitors

Compound | cleavage of pp60src [1] | calpain inhibition (calpain [2]) | action in cells (calpain [3]) | crossing of cell membranes [4]
CCCC[C@@H](C=O)NC(=O)[C@H](CC(C)C)NC(=O)OCc1ccccc1 [calpeptin] | can be prevented | – | – | –
CC(=O)N[C@@H](CC(C)C)C(=O)N[C@@H](CC(C)C)C(=O)N[C@H](C=O)CCCNC(=N)N [leupeptin] | – | good calpain inhibitors | only a poor action in cells | only cross the cell membranes with difficulty
CC(C)C[C@H](NC(=O)[C@H]1O[C@@H]1C(=O)O)C(=O)NCCCCN=C(N)N [E 64] | – | good calpain inhibitors | only a poor action in cells | only cross the cell membranes with difficulty
Ph—CONH—CH(CH2Ph)—CO—COCOOCH3 | – | only a weak calpain inhibitor | – | –
